In paper PMC11167047 (Cell Death Discovery, 2024):

Legend:
Assay in all cases: kinome screen (33PanQinase)
Type in all cases: biochemical
VEGFR3 = molecular target: T1, VEGFR3 (Homo sapiens, UniProt P35916)
T1 construct: purchased Reaction Biology Europe GmbH (formerly ProQinase)
Protocol: (§1) The Kinome Screening was performed by Reaction Biology Europe GmbH (http://reactionbiology.com; Freiburg i. Br., Germany).

TSK2 = molecular target: T2, TSK2 (Homo sapiens, UniProt Q96PF2)
T2 construct: purchased Reaction Biology Europe GmbH (formerly ProQinase)
T2 sequence (Q96PF2 1-358): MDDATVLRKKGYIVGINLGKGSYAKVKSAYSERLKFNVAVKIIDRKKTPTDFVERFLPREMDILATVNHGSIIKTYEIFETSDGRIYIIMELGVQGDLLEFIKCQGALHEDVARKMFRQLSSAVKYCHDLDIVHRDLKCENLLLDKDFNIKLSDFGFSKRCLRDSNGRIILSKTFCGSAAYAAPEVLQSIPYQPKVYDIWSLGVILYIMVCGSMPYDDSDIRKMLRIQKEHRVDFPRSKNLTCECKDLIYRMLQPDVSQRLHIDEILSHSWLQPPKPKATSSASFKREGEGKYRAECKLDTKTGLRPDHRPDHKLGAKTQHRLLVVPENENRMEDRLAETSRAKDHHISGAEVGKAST
Protocol: as §1

BRSK2 = molecular target: T3, BRSK2 (Homo sapiens, UniProt Q8IWQ3)
T3 construct: purchased Reaction Biology Europe GmbH (formerly ProQinase)
T3 sequence (Q8IWQ3 1-736): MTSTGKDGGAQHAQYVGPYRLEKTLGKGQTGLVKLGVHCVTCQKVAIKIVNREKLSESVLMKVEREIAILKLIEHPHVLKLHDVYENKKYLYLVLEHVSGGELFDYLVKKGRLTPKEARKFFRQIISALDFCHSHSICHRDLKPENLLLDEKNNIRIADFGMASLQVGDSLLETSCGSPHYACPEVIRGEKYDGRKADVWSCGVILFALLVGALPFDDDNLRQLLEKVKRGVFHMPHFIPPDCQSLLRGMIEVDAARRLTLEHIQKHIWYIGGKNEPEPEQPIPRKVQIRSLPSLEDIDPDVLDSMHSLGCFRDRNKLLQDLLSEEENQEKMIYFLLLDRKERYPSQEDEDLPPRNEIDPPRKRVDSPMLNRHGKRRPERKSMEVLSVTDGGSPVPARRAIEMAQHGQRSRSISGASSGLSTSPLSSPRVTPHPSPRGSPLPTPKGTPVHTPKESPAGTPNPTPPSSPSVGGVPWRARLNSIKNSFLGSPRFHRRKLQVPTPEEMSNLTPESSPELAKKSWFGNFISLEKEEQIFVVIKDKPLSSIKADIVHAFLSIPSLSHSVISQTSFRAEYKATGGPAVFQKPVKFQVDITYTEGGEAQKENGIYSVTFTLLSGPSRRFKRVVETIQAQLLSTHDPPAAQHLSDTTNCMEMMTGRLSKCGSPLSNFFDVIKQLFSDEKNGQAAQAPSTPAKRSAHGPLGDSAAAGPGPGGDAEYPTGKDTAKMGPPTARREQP
Protocol: as §1

DAPK3 = molecular target: T4, DAPK3 (Homo sapiens, UniProt O43293)
T4 construct: purchased Reaction Biology Europe GmbH (formerly ProQinase)
T4 sequence (O43293 whole entry): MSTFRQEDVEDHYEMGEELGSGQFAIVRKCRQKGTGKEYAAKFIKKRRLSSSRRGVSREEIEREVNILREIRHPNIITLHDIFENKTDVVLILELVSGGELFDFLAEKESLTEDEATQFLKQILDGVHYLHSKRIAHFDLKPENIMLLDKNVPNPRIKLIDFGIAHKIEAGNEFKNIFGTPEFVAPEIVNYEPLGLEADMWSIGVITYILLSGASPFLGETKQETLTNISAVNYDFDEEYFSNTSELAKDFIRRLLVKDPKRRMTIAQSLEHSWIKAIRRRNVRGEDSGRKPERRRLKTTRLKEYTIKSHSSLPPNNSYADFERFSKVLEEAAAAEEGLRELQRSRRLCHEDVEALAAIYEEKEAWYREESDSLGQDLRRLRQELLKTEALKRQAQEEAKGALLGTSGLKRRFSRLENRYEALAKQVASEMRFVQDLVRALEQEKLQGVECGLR
Protocol: as §1

CDK4/CycD1 = molecular target: T5, CDK4/CycD1 (Homo sapiens, UniProt P11802)
T5 construct: purchased Reaction Biology Europe GmbH (formerly ProQinase)
Protocol: as §1

HIPK3 = molecular target: T6, HIPK3 (Homo sapiens, UniProt Q9H422)
T6 construct: purchased Reaction Biology Europe GmbH (formerly ProQinase)
Protocol: as §1

LIMK2 = molecular target: T7, LIMK2 (Homo sapiens, UniProt P53671)
T7 construct: purchased Reaction Biology Europe GmbH (formerly ProQinase)
T7 sequence (P53671 whole entry): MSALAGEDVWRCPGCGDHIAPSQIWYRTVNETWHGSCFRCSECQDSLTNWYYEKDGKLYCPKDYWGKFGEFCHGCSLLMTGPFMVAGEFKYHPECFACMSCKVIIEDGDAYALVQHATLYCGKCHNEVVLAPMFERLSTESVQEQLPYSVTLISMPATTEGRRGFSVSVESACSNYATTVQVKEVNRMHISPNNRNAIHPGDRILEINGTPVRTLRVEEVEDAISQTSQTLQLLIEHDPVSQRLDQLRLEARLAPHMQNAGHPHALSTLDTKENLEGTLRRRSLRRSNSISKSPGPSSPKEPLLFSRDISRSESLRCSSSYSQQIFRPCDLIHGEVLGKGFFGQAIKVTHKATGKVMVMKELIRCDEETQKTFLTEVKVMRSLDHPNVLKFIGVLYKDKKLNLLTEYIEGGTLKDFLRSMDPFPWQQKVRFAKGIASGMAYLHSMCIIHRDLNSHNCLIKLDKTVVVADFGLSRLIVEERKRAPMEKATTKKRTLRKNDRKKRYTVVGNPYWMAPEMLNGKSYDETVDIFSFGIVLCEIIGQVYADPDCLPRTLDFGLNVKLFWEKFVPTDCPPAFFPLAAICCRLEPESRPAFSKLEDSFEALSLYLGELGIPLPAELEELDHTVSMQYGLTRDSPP
Protocol: as §1

GRK5 = molecular target: T8, GRK5 (Homo sapiens, UniProt P34947)
T8 construct: purchased Reaction Biology Europe GmbH (formerly ProQinase)
T8 sequence (P34947 whole entry): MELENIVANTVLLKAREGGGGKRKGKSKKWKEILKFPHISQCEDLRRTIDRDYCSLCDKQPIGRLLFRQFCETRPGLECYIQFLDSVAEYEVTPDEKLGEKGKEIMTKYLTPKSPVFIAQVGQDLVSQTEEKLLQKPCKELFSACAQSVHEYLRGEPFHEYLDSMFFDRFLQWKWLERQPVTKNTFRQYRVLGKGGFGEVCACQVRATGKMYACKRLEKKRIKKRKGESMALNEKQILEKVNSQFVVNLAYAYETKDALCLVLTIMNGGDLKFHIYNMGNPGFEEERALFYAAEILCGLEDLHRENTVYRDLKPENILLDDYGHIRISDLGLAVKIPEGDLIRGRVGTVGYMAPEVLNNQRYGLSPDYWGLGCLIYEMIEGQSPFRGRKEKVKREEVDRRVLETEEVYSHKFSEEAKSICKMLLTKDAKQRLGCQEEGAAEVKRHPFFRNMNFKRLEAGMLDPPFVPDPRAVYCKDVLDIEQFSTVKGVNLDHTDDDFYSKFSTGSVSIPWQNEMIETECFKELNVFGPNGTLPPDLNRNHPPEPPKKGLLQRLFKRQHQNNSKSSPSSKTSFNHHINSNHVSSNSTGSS
Protocol: as §1

AuroraC = molecular target: T9, AuroraC (Homo sapiens, UniProt Q9UQB9)
T9 construct: purchased Reaction Biology Europe GmbH (formerly ProQinase)
T9 sequence (Q9UQB9 1-309): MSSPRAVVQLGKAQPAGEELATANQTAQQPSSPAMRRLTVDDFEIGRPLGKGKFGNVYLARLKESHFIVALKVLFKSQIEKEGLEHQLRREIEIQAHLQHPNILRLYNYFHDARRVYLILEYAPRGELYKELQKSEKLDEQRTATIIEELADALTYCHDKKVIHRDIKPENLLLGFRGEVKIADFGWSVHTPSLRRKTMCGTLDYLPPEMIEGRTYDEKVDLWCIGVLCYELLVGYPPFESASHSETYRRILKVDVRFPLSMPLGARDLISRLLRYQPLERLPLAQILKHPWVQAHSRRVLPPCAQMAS
Protocol: as §1

MARK3 = molecular target: T10, MARK3 (Homo sapiens, UniProt P27448)
T10 construct: purchased Reaction Biology Europe GmbH (formerly ProQinase)
T10 sequence (P27448 whole entry): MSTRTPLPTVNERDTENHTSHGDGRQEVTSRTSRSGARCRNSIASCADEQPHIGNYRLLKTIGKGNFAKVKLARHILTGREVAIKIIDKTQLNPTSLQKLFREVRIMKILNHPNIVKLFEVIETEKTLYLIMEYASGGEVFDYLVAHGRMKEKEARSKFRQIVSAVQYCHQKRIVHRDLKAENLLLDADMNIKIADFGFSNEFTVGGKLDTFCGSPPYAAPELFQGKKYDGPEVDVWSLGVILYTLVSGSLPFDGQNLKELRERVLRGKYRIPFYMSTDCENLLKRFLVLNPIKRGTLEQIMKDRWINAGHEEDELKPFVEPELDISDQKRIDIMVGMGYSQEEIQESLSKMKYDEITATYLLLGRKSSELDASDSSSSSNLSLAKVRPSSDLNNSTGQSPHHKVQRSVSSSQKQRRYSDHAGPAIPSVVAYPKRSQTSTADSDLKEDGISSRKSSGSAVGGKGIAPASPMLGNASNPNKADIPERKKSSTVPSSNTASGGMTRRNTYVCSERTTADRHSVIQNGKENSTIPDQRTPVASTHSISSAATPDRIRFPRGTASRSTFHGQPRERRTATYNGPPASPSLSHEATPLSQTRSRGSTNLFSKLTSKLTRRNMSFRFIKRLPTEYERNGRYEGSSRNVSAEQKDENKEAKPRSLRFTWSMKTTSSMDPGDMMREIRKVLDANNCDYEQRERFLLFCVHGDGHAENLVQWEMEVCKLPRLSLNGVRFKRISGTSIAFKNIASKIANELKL
Protocol: as §1

PDGFRα = molecular target: T11, PDGFRα (Homo sapiens, UniProt P16234)
T11 construct: purchased Reaction Biology Europe GmbH (formerly ProQinase)
Protocol: as §1

EPHA2 = molecular target: T12, EPHA2 (Homo sapiens, UniProt P29317)
T12 construct: purchased Reaction Biology Europe GmbH (formerly ProQinase)
T12 sequence (P29317 24-976): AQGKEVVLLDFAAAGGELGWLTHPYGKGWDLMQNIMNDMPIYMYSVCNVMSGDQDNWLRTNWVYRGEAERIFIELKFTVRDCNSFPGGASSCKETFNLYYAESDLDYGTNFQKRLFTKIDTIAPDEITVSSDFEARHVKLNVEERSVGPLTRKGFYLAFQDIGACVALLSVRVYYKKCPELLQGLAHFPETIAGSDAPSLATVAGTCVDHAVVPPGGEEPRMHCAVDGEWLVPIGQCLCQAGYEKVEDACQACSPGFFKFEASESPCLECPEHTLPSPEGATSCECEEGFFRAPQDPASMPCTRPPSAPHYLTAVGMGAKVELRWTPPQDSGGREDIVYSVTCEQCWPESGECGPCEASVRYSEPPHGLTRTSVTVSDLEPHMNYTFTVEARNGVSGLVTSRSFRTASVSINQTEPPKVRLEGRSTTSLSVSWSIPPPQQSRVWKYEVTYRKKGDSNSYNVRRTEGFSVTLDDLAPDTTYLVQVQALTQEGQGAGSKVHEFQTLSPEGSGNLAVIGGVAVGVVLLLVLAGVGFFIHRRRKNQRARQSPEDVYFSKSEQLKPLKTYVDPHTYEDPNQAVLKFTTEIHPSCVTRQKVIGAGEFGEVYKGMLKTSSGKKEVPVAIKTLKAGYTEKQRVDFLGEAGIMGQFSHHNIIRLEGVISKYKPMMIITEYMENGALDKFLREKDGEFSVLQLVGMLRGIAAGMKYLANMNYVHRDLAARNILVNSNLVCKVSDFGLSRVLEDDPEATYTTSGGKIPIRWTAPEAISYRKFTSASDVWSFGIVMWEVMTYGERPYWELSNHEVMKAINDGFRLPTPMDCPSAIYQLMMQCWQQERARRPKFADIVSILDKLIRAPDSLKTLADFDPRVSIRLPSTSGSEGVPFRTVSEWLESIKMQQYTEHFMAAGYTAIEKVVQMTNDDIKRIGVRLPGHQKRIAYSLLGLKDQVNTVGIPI
Protocol: as §1

T1 sequence (P35916 25-1363): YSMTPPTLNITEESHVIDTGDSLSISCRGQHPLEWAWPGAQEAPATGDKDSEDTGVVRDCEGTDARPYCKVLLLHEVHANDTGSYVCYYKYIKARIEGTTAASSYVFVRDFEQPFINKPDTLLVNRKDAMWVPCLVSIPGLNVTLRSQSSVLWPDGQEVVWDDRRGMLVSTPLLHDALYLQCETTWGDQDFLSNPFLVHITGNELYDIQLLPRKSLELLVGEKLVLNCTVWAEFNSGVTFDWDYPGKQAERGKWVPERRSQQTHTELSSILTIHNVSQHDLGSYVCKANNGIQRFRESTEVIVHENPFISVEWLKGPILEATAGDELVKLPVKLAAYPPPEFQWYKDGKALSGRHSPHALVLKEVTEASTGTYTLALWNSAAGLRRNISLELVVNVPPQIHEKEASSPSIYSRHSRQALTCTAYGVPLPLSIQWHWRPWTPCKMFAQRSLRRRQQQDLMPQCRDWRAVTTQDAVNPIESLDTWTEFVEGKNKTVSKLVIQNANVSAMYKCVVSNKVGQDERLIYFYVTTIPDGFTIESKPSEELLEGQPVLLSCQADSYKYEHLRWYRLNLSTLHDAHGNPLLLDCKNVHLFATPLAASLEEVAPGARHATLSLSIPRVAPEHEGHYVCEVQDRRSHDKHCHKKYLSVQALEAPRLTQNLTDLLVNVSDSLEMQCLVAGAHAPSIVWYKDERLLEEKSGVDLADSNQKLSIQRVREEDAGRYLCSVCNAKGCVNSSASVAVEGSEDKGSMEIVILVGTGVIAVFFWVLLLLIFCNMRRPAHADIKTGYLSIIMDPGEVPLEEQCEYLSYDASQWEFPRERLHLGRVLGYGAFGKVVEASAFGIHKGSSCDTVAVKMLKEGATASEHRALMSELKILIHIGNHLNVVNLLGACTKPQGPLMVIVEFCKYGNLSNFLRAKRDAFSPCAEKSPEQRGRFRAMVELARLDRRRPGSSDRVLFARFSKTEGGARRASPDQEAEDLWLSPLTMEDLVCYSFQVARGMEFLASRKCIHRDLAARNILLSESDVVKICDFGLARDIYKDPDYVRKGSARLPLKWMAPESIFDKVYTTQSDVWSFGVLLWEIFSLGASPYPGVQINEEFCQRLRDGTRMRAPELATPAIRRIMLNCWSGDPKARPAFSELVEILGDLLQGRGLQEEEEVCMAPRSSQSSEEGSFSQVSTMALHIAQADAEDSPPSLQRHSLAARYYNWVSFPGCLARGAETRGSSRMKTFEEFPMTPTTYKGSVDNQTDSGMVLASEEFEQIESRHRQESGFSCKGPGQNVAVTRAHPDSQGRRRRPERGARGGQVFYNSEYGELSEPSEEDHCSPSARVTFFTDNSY

| SMILES | residual kinase activity (VEGFR3; 0.3 µM) | residual kinase activity (TSK2; 0.3 µM) | residual kinase activity (BRSK2; 0.3 µM) | residual kinase activity (DAPK3; 0.3 µM) | residual kinase activity (CDK4/CycD1; 0.3 µM) | residual kinase activity (HIPK3; 0.3 µM) | residual kinase activity (LIMK2; 0.3 µM) | residual kinase activity (GRK5; 0.3 µM) | residual kinase activity (AuroraC; 0.3 µM) | residual kinase activity (MARK3; 0.3 µM) | residual kinase activity (PDGFRα; 0.3 µM) | residual kinase activity (EPHA2; 0.3 µM) | further results |
| --- | --- | --- | --- | --- | --- | --- | --- | --- | --- | --- | --- | --- | --- |
| COc1ccnc2[nH]cc(-c3cc(N)nc(N)c3)c12 [meriolin 16] | 77 % of control | 92 % of control | 92 % of control | 51 % of control | 36 % of control | 7 % of control | 101 % of control | 91 % of control | 95 % of control | 86 % of control | 60 % of control | 101 % of control | residual kinase activity (VEGFR3; 0.03 µM): 90 % of control; residual kinase activity (TSK2; 0.03 µM): 107 % of control; residual kinase activity (BRSK2; 0.03 µM): 111 % of control; residual kinase activity (DAPK3; 0.03 µM): 98 % of control; residual kinase activity (CDK4/CycD1; 0.03 µM): 86 % of control; residual kinase activity (HIPK3; 0.03 µM): 53 % of control; residual kinase activity (LIMK2; 0.03 µM): 106 % of control; residual kinase activity (GRK5; 0.03 µM): 118 % of control; residual kinase activity (AuroraC; 0.03 µM): 104 % of control; residual kinase activity (MARK3; 0.03 µM): 99 % of control; residual kinase activity (PDGFRα; 0.03 µM): 89 % of control; residual kinase activity (EPHA2; 0.03 µM): 109 % of control |
| c1ccc(CNc2cc(-c3c[nH]c4ncccc34)ccn2)cc1 [meriolin 36] | 64 % of control | 103 % of control | 112 % of control | 80 % of control | 24 % of control | 45 % of control | 70 % of control | 119 % of control | 76 % of control | 89 % of control | 25 % of control | 101 % of control | residual kinase activity (VEGFR3; 3 µM): 23 % of control; residual kinase activity (TSK2; 3 µM): 94 % of control; residual kinase activity (BRSK2; 3 µM): 61 % of control; residual kinase activity (DAPK3; 3 µM): 25 % of control; residual kinase activity (CDK4/CycD1; 3 µM): 4 % of control; residual kinase activity (HIPK3; 3 µM): 11 % of control; residual kinase activity (LIMK2; 3 µM): 27 % of control; residual kinase activity (GRK5; 3 µM): 74 % of control; residual kinase activity (AuroraC; 3 µM): 41 % of control; residual kinase activity (MARK3; 3 µM): 48 % of control; residual kinase activity (PDGFRα; 3 µM): 8 % of control; residual kinase activity (EPHA2; 3 µM): 72 % of control |
